In patent US9884048B2, “ERK inhibitors” (Merck Sharp & Dohme Corp., priority 2014, dated 2018):
pIC50: −log10 of the molar value.

molecular target: phosphorylated active hERK2 enzyme (Homo sapiens (Human), UniProt P28482); conditions: read-out: ERK2 IC50; IMAP-FP assay; 0.5 nM hERK2, 30 μM ATP; 10 point titration, 3 μM starting concentration
Sequence (P28482 whole entry): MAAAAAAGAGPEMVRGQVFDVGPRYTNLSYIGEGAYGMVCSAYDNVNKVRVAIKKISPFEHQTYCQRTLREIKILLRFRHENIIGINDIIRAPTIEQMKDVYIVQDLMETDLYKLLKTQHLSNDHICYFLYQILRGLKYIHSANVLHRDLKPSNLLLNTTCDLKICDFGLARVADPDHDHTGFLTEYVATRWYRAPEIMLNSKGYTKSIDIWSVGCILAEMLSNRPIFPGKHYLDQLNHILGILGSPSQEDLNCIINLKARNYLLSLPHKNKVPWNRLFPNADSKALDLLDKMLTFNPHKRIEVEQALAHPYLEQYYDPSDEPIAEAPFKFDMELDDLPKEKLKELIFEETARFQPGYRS

pIC50	SMILES
7.97	C[C@@H](NC(=O)Nc1cc2cnn(-c3ccc(F)cc3)c2cn1)c1ccc(F)cc1 [Example 3, 1-[(1R)-1-(4-fluorophenyl)ethyl]-3-[1-(4-fluorophenyl)-1H-pyrazolo[3,4-c]pyridin-5-yl)urea]
6.40	Cc1cc(-n2ncc3cc(NC(=O)N[C@H]4CCCC[C@@H]4N)ncc32)ccn1 [Example 138, 1-[(1S,2S)-2-aminocyclohexyl]-3-[1-(2-methylpyridin-4-yl)-1H-pyrazolo[3,4-c]pyridin-5-yl]urea]
6.99	Cc1cc(-n2ncc3cc(NC(=O)NCC4CNC4)ncc32)ccn1 [Example 263, 1-(azetidin-3-ylmethyl)-3-(1-(2-methylpyridin-4-yl)-1H-pyrazolo[3,4-c]pyridin-5-yl)urea]
7.31	C[C@@H](NC(=O)Nc1cc2cnn(C3CCCCC3)c2c(CO)n1)c1ccccc1 [Example 313, 1-[1-cyclohexyl-7-(hydroxymethyl)-1H-pyrazolo[3,4-c]pyridin-5-yl]-3-[(1R)-1-phenylethyl]urea]
6.82	Cc1cc(-n2ncc3cc(NC(=O)N[C@H](CN4CCOCC4)c4ccccc4)ncc32)ccn1 [Example 127, 1-[1-(2-methylpyridin-4-yl)-1H-pyrazolo[3,4-c]pyridin-5-yl]-3-[(1S)-2-morpholin-4-yl-1-phenylethyl]urea]
5.61	O=C(Nc1cc2cnn(Cc3ccncc3)c2cn1)N[C@H](CO)c1ccccc1 [Example 261, 1-[(1S)-2-hydroxy-1-phenylethyl]-3-[1-(pyridin-4-ylmethyl)-1H-pyrazolo[3,4-c]pyridin-5-yl]urea]
5.91	C[C@@H](NC(=O)Nc1cc2cnn(C3CCNC(=O)C3)c2cn1)c1ccc(F)cc1 (stereo partly drawn) [Example 233, 1-[(1R)-1-(4-fluorophenyl)ethyl]-3-[1-(2-oxopiperidin-4-yl)-1H-pyrazolo[3,4-c]pyridin-5-yl]urea]
7.75	Cc1cc(-n2ncc3cc(NC(=O)NC4CC(c5ccccc5)CN(C)C4)ncc32)ccn1 (centres unmarked) [Example 290, 1-(1-methyl-5-phenylpiperidin-3-yl)-3-[1-(2-methylpyridin-4-yl)-1H-pyrazolo[3,4-c]pyridin-5-yl]urea]
7.78	Cc1cc(-n2ncc3cc(NC(=O)N[C@H]4CN(C)C[C@@H]4Oc4ccc(F)cc4)ncc32)ccn1 [Example 285, 1-[(3S,4S)-4-(4-fluorophenoxy)-1-methylpyrrolidin-3-yl]-3-[1-(2-methylpyridin-4-yl)-1H-pyrazolo[3,4-c]pyridin-5-yl]urea]
5.74	CC(C)(C)OC(=O)N1CCc2cnc(-n3ncc4cc(NC(=O)N[C@@H](c5ccc(F)cc5)C(C)(C)O)ncc43)nc2C1 [Example 234, tert-butyl 2-[5-({[(1S)-1-(4-fluorophenyl)-2-hydroxy-2-methylpropyl]carbamoyl}amino)-1H-pyrazolo[3,4-c]pyridin-1-yl]-5,8-dihydropyrido[3,4-d]pyrimidine-7(6H)-carboxylate]
9.49	Cc1cc(-n2ncc3cc(NC(=O)N[C@@H]4CCN(Cc5c(F)cccc5F)C4)ncc32)ccn1 [Example 283, 1-[(3R)-1-(2,6-difluorobenzyl)pyrrolidin-3-yl]-3-[1-(2-methylpyridin-4-yl)-1H-pyrazolo[3,4-c]pyridin-5-yl]urea]
9.16	Cc1cc(-n2ncc3cc(NC(=O)N[C@H](CN)c4ccccc4)ncc32)ccn1 [Example 187, 1-[(1S)-2-amino-1-phenylethyl]-3-[1-(2-methylpyridin-4-yl)-1H-pyrazolo[3,4-c]pyridin-5-yl]urea]
6.70	Cc1cc(-n2ncc3cc(NC(=O)NCC(c4ccccc4)N4CCCCC4)ncc32)ccn1 (centres unmarked) [Example 50, 1-[1-(2-methylpyridin-4-yl)-1H-pyrazolo[3,4-c]pyridin-5-yl]-3-(2-phenyl-2-piperidin-1-ylethyl)urea]
7.92	C[C@@H](NC(=O)Nc1cc2cnn(-c3cnn(C)c3)c2cn1)c1ccc(F)c(Cl)c1 [Example 205, (R)-1-(1-(3-chloro-4-fluorophenyl)ethyl)-3-(1-(1-methyl-1H-pyrazol-4-yl)-1H-pyrazolo[3,4-c]pyridin-5-yl)urea]
6.80	C[C@@H](NC(=O)Nc1cc2cnn(CCO)c2c(CO)n1)c1ccccc1 [Example 310, 1-[1-(2-hydroxyethyl)-7-(hydroxymethyl)-1H-pyrazolo[3,4-c]pyridin-5-yl]-3-[(1R)-1-phenylethyl]urea]
7.68	Cn1cc(-n2ncc3cc(NC(=O)NCc4ccc(F)c(Cl)c4)ncc32)cn1 [Example 218, 1-(3-chloro-4-fluorobenzyl)-3-[1-(1-methyl-1H-pyrazol-4-yl)-1H-pyrazolo[3,4-c]pyridin-5-yl]urea]
7.72	Cc1cc(-n2ncc3cc(NC(=O)NCCNCc4ccccc4)ncc32)ccn1 [Example 96, 1-[2-(benzylamino)ethyl]-3-[1-(2-methylpyridin-4-yl)-1H-pyrazolo[3,4-c]pyridin-5-yl]urea]
8.27	Cc1cc(-n2ncc3cc(NC(=O)NCc4nonc4C)ncc32)ccn1 [Example 118, 1-[(4-methyl-1,2,5-oxadiazol-3-yl)methyl]-3-[1-(2-methylpyridin-4-yl)-1H-pyrazolo[3,4-c]pyridin-5-yl]urea]

pIC50	SMILES
6.71	Cc1cc(-n2ncc3cc(NC(=O)NCC(F)(F)c4ccccc4)ncc32)ccn1 [Example 61, 1-(2,2-difluoro-2-phenylethyl)-3-[1-(2-methylpyridin-4-yl)-1H-pyrazolo[3,4-c]pyridin-5-yl]urea]
8.45	CO[C@H]1CN(Cc2c(F)cccc2F)C[C@@H]1NC(=O)Nc1cc2cnn(-c3ccnc(C)c3)c2cn1 (single isomer, unassigned) [Example 274, 1-[(3R,4R) or (3S, 4S)-1-(2,6-difluorobenzyl)-4-methoxypyrrolidin-3-yl]-3-[1-(2-methylpyridin-4-yl)-1H-pyrazolo[3,4-c]pyridin-5-yl]urea]
6.04	Cc1cc(-n2ncc3cc(NC(=O)N[C@@H](c4ccccc4)C(F)F)ncc32)ccn1 [Example 81, 1-[(1S)-2,2-difluoro-1-phenylethyl]-3-[1-(2-methylpyridin-4-yl)-1H-pyrazolo[3,4-c]pyridin-5-yl)urea]
6.45	Cc1cc(-n2ncc3cc(NC(=O)N[C@@H]4CN(C5CCC5)C[C@H]4c4ccccc4)ncc32)ccn1 [Example 196, 1-[(3S,4R)-1-cyclobutyl-4-phenylpyrrolidin-3-yl]-3-[1-(2-methylpyridin-4-yl)-1H-pyrazolo[3,4-c]pyridin-5-yl]urea]
8.28	Cc1cc(-n2ncc3cc(NC(=O)NCc4cccc(-n5cccn5)c4)ncc32)ccn1 [Example 75]
8.67	Cc1cc(-n2ncc3cc(NC(=O)N[C@@H]4CN(C)[C@@H](C)[C@H]4c4ccccc4C)ncc32)ccn1 [Example 105, 1-[(3S,4S,5S)-1,5-dimethyl-4-(2-methylphenyl)-pyrrolidin-3-yl]-3-[1-(2-methylpyridin-4-yl)-1H-pyrazolo[3,4-c]pyridin-5-yl)urea]
7.22	Cc1cc(-n2ncc3cc(NC(=O)N[C@H]4CN(C)C[C@@H]4c4ccccc4)ncc32)ccn1 [Example 182, 1-((3R,4S)1-methyl-4-phenyl-pyrrolidin-3-yl)-3-[1-(2-methyl-pyridin-4-yl)-1H-pyrazolo[3,4-c]pyridin-5-yl]urea]
7.34	Cc1cc(-n2ncc3cc(NC(=O)NC4CCN(Cc5cccnc5)C4)ncc32)ccn1 (centres unmarked) [Example 270, 1-[1-(2-methylpyridin-4-yl)-1H-pyrazolo[3,4-c]pyridin-5-yl]-3-[1-(pyridin-3-ylmethyl)-pyrrolidin-3-yl]urea]
8.77	Cc1cc(-n2ncc3cc(NC(=O)NCc4cccc(-c5ccon5)c4)ncc32)ccn1 [Example 98, 1-(3-isoxazol-3-ylbenzyl)-3-[1-(2-methylpyridin-4-yl)-1H-pyrazolo[3,4-c]pyridin-5-yl]urea]
9.02	Cc1cc(-n2ncc3cc(NC(=O)N[C@H]4CN(C)C[C@@H]4c4ccccc4Cl)ncc32)ccn1 [Example 16, 1-[(3R,4S)-4-(2-chlorophenyl)-1-methylpyrrolidin-3-yl]-3-[1-(2-methylpyridin-4-yl)-1H-pyrazolo[3,4-c]pyridin-5-yl]urea]
6.23	Cc1cc(-n2ncc3cc(NC(=O)N[C@H]4CN(C)C[C@@H]4c4ccc(-c5ccccc5)s4)ncc32)ccn1 [Example 155, 1-[(3R,4S)-1-methyl-4-(5-phenylthiophen-2-yl)pyrrolidin-3-yl]-3-[1-(2-methylpyridin-4-yl)-1H-pyrazolo[3,4-c]pyridin-5-yl]urea]
8.11	Cc1cc(-n2ncc3cc(NC(=O)N[C@H](C)c4ccccn4)ncc32)ccn1 [Example 204, 1-[1-(2-methylpyridin-4-yl)-1H-pyrazolo[3,4-c]pyridin-5-yl]-3-[(1R)-1-pyridin-2-ylethyl]urea]
8.64	Cc1cc(-n2ncc3cc(NC(=O)N[C@H](C)c4ccc(F)cc4)ncc32)ccn1 [Example 223, (R)-1-(1-(4-fluorophenyl)ethyl)-3-(1-(2-methylpyridin-4-yl)-1H-pyrazolo[3,4-c]pyridin-5-yl)urea]
7.80	Cn1cc(-n2ncc3cc(NC(=O)NCc4cccc(Cl)c4)ncc32)cn1 [Example 216, 1-(3-chlorobenzyl)-3-[1-(1-methyl-1H-pyrazol-4-yl)-1H-pyrazolo[3,4-c]pyridin-5-yl]urea]
7.80	Cc1cc(-n2ncc3cc(NC(=O)NCCOc4ccc(F)cc4)ncc32)ccn1 [Example 85, 1-[2-(4-fluorophenoxy)ethyl]-3-[1-(2-methylpyridin-4-yl)-1H-pyrazolo[3,4-c]pyridin-5-yl)urea]
9.30	Cc1cc(-n2ncc3cc(NC(=O)N[C@H]4[C@H](c5ccccc5C)CN(C)[C@H]4C)ncc32)ccn1 [Example 101, 1-[(2S,3S,4R)-1,2-dimethyl-4-(2-methylphenyl)-pyrrolidin-3-yl]-3-[1-(2-methylpyridin-4-yl)-1H-pyrazolo[3,4-c]pyridin-5-yl)urea]
7.87	Cc1cc(-n2ncc3cc(NC(=O)N[C@H]4CCC[C@@H]4Oc4ccccc4)ncc32)ccn1 [Example 161, 1-[1-(2-methylpyridin-4-yl)-1H-pyrazolo[3,4-c]pyridin-5-yl]-3-[(1S,2S)-2-phenoxycyclopentyl]urea]
